Reference: patent US11642337B2, “Therapeutic agent for mental retardation or autism” (TOKYO METROPOLITAN INSTITUTE OF MEDICAL SCIENCE, priority 2017, dated 2023)

Key:
Type in all cases: in vivo, mouse
[1] = tested on: GFAP-Cre; Tsc1^fl/fl (GFAP-Tsc1 cKO) mice; experiment: Three-chamber test in GFAP-Tsc1 cKO mice (abnormality of social behavior); details: single oral administration (40 mg/kg)
Method: By a three-chamber test, social interaction was investigated. This was carried out using an experiment device having three separated chambers between which a mouse can move freely. First, a cage containing a mouse (stranger 1 mouse) was placed in one chamber, and an empty cage was placed in another chamber (FIG. 2a). The subject mouse was placed in the middle chamber, and the length of time when the mouse stayed in each chamber (the chamber staying time in the figure, expressed in (s): seconds) was measured. Subsequently, the mouse (stranger 1 mouse) in the first cage was transferred to the empty cage, and another mouse (stranger 2 mouse) was placed in the cage that became empty (FIG. 2a). Thereafter, the length of time when the subject mouse stayed in the chamber of the first mouse (stranger 1 chamber) and the length of time when the subject mouse stayed in the chamber where the new mouse was staying (stranger 2 chamber) were measured and compared.
These mice were obtained by crossing of GFAP-Cre mice, which show astrocyte-specific Cre expression.
A suspension of 4 mg/ml lonafarnib or tipifarnib (using 1 w/v % CMC, 0.9 w/v % NaCl, and 5 v/v % DMSO as a vehicle) was prepared and orally administered at 40 mg/kg. A solution of 2 mg/ml pentylenetetrazol (PTZ) (using 0.9 w/v % NaCl as a vehicle) was prepared and intraperitoneally administered. […]

[2] = tested on: mice to which pentylenetetrazol was administered; experiment: Contextual fear discrimination test in pentylenetetrazol-treated mice (epilepsy-induced memory impairment); details: mice given pentylenetetrazol 10 times; single administration 40 mg/kg, i.p.
Tsc2^+/− mice = experiment: Contextual fear discrimination test in Tsc2+/- mice (memory impairment of tuberous sclerosis); details: 40 mg/kg orally, single administration six hours before FS, measured on the next day in the same box, vs vehicle group
Method: Tsc2^+/− mice were prepared by breeding/crossing according to a known method (Kobayashi, T., et al., Renal carcinogenesis, hepatic hemangiomatosis, and embryonic lethality caused by a germ-line Tsc2 mutation in mice. Cancer Res, 1999. 59(6): p. 1206-11).
A contextual fear discrimination test (Auerbach, B. D., E. K. Osterweil, and M. F. Bear, Mutations causing syndromic autism define an axis of synaptic pathophysiology. Nature, 2011. 480(7375): p. 63-8.) was carried out to measure the contextual fear memory of mice. More specifically, each mouse was placed in a cage for application of foot shock (FS), and FS was applied to the mouse. On the next day, the mouse was returned to the same cage (familiar condition), and the freeze time was measured (FIG. 1a). In order to investigate the effect of tipifarnib or lonafarnib (which may be hereinafter simply referred to as “active component”), a vehicle (carboxymethyl cellulose) and the active component were orally administered to mice, and FS was applied to each mouse 6 hours later. On the next day, the mouse was returned to the same cage to compare the freeze time. […]
Six hours before FS, lonafarnib (40 mg/kg) or tipifarnib (40 mg/kg) was orally administered to the Tsc2^+/− mice, and contextual fear memory was investigated (FIG. 1a). On the next day, the mice were returned to the box in which the FS was applied, and the freeze time was measured.

[3] = tested on: mice to which kainic acid was administered during the neonatal period; experiment: Three-chamber test in mice given kainic acid in the neonatal period (autism-like abnormality of social behavior); details: mice given kainic acid 1.5 mg/kg one week after birth, tested two months later; single administration 40 mg/kg, i.p.

With `NC(=O)N1CCC(CC(=O)N2CCC([C@H]3c4ncc(Br)cc4CCc4cc(Cl)cc(Br)c43)CC2)CC1` [lonafarnib] the “staying time in the chamber of the stranger 2” value [1] was “significantly longer”, the “contextual fear memory (freeze time), pentylenetetrazol-induced memory impairment” value [2] was “pentylenetetrazol-induced memory impairment could also be improved” and the “freeze time (contextual fear memory)” value (Tsc2^+/− mice) was “increases in the freeze behavior”. The “staying time in the chamber of the stranger 2 (time spent in chamber)” value [3] was “significantly longer”.
With `Cn1cncc1[C@@](N)(c1ccc(Cl)cc1)c1ccc2c(c1)c(-c1cccc(Cl)c1)cc(=O)n2C` [tipifarnib, 6-[(R)-amino(4-chlorophenyl)(1-methyl-1H-imidazol-5-yl)methyl]-4-(3-chlorophenyl)-1-methyl-2(1H)-quinolinone] the “freeze time (contextual fear memory)” value (Tsc2^+/− mice) was “increases in the freeze behavior”.
